In PubChem BioAssay (NCI):
Several values for one entry are separate records, joined by “and”; a condition that tells them apart may be missing. Equal values may be shown once.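 Protocol summary: plate cells (96-well), add compound at 5 concentrations, incubate 48 h, interpolate endpoints linearly. GI50: concentration for 50% inhibition of growth. TGI: concentration producing complete growth inhibition.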

Experiments:
Experiment in all cases: NCI anticancer screen, dose series, 48 h
[1] = system: ACHN renal
[2] = system: CCRF-CEM leukemia
[3] = system: COLO 205 colon
[4] = system: HOP-62 NSCLC
[5] = system: HT29 colon
[6] = system: NCI-H226 lung
[7] = system: SK-MEL-5 melanoma
[8] = system: SR leukemia
[9] = system: U251 CNS
[10] = system: UACC-257 melanoma

SMILES | GI50 [1] | TGI [1] | GI50 [2] | TGI [2] | GI50 [3] | TGI [3] | GI50 [4] | TGI [4] | GI50 [5] | TGI [5] | TGI [6] | GI50 [7] | TGI [7] | TGI [8] | GI50 [9] | TGI [9] | GI50 [10] | TGI [10] | GI50 [6] | GI50 [8]
O=[N+]([O-])c1ccc2c(N=Nc3c(O)ccc4ccccc34)c(O)cc(S(=O)(=O)O)c2c1 | 18.1 µM | 50 µM and > 100 µM | 19.8 µM | 50 µM and > 100 µM | 53.4 µM | 50 µM and > 100 µM | 17.1 µM | 50 µM and > 100 µM | 49.6 µM | 50 µM and > 100 µM | 50 µM | 46.7 µM | 50 µM and > 100 µM | > 100 µM | 12.5 µM | 50 µM and > 100 µM | 32 µM | 50 µM and > 100 µM | – | –
CCOC(=O)C12CC1(C(=O)OCC)C1CCC2C1 (stereo unspecified) | – | > 100 µM | – | > 100 µM | – | > 100 µM | – | > 100 µM | – | > 100 µM | > 100 µM | – | > 100 µM | > 100 µM | – | > 100 µM | – | > 100 µM | – | –
Cn1cnc([N+](=O)[O-])c1Sc1ncnc2c1ncn2C1OC(CO)C(O)C1O (stereo unspecified) | 25.7 µM | > 100 µM | 21.7 µM | > 100 µM | 15 µM | 61 µM | 2 µM | > 100 µM | 7.3 µM | > 100 µM | > 100 µM | 11.4 µM | > 100 µM | > 100 µM | 8.79 µM | > 100 µM | 24.5 µM | > 100 µM | 8.04 µM | 5.2 µM
COc1ccc(C(=O)C=C2NCCN2)cc1 | – | > 100 µM | – | > 100 µM | – | > 100 µM | – | > 100 µM | – | > 100 µM | > 100 µM | – | > 100 µM | > 100 µM | – | > 100 µM | – | > 100 µM | – | –
COc1ccc(/C=C(\C#N)c2cc3ccccc3n2C)cc1 | 0.654 µM | > 100 µM | 0.338 µM | > 100 µM | 0.366 µM | – | 0.497 µM | > 100 µM | 0.347 µM | > 34.1 µM | > 70.8 µM | 0.504 µM | 16.9 µM | – | 0.493 µM | > 100 µM | 3.32 µM | > 100 µM | 1.87 µM | 0.176 µM
C#Cc1ccc(NC(=O)c2ccc(/C=C/C(=O)c3nccn3C)cc2)cc1 | 0.445 µM | 0.839 µM | 0.486 µM | 1.59 µM | 0.592 µM | 1.36 µM | 0.612 µM | 1.65 µM | 0.54 µM | 1.32 µM | 2 µM | 0.49 µM | 1.01 µM | 3.33 µM | 0.347 µM | 0.757 µM | 0.66 µM | 2.21 µM | 0.605 µM | 0.115 µM
CCNCC(O)c1ccc(N)c([N+](=O)[O-])c1 (stereo unspecified) | – | > 100 µM | – | > 100 µM | – | > 100 µM | – | > 100 µM | – | > 100 µM | > 100 µM | – | > 100 µM | > 100 µM | – | > 100 µM | – | > 100 µM | – | –
C[Se]C(=O)CC1=C2C=C(F)C=CC2/C(=C\c2ccc(S(C)=O)cc2)C1C (stereo unspecified) | 0.154 µM | 3.07 µM | 0.208 µM | > 20.6 µM | 1.25 µM | 6.36 µM | < 0.01 µM | 0.331 µM | < 0.0318 µM | > 100 µM | 0.317 µM | 0.111 µM | 0.266 µM | > 100 µM | < 0.0181 µM | 1.43 µM | 0.0875 µM | 2.42 µM | < 0.0164 µM | 1.17 µM
FC(F)(F)c1ccc(-c2cnc(Br)nc2NC2CCCCCC2)cc1 | > 100 µM | > 100 µM | 84.7 µM | > 100 µM | 83.3 µM | > 100 µM | > 100 µM | > 100 µM | 71.4 µM | > 100 µM | > 100 µM | 29.1 µM | > 100 µM | > 100 µM | 75 µM | > 100 µM | 63.4 µM | > 100 µM | 24.6 µM | 30.5 µM
C[C@H]1[C@@H](OCC(CO[C@H]2O[C@@H]3O[C@@]4(C)CC[C@H]5[C@H](C)CC[C@@H]([C@H]2C)[C@@]35OO4)=NOCC(=O)O)OC2O[C@@]3(C)CC[C@H]4[C@H](C)CC[C@@H]1[C@@]24OO3 (stereo partly specified) | 0.188 µM | 14.5 µM | < 0.01 µM | 12.5 µM | < 0.0195 µM | 0.422 µM | 0.229 µM | 21.7 µM | < 0.01 µM | 15 µM | 20.1 µM | 0.0288 µM | 14.9 µM | 11.8 µM | < 0.0114 µM | 14 µM | 0.0266 µM | 16.4 µM | 0.0375 µM | < 0.01 µM
CCS/C(Nc1ccccc1)=C(\C#N)C(=O)Nc1ccc(OC)cc1 | 5.04 µM | > 100 µM | 1.83 µM | > 100 µM | 3.06 µM | 11.2 µM | 5.62 µM | > 100 µM | 3.47 µM | 33.3 µM | 50.7 µM | 2.2 µM | 8.19 µM | > 100 µM | 4.42 µM | > 100 µM | 21.2 µM | > 100 µM | 5.45 µM | 1.54 µM
COC(=O)C1=C(C(=O)OC)C2(C(=O)OC)OC1(OC)C(C1(C(=O)OC)C(C(=O)OC)=C1C(=O)OC)=C2C(=O)OC (stereo unspecified) | – | > 100 µM | – | > 100 µM | – | > 100 µM | – | > 100 µM | – | > 100 µM | > 100 µM | – | > 100 µM | > 100 µM | – | > 100 µM | – | > 100 µM | – | –
CC#CC(=O)N1CCC[C@H]1c1nc(-c2ccc(C(=O)Nc3ccccn3)cc2)c2c(N)nccn12 | 23.8 µM | > 100 µM | > 82.1 µM | > 100 µM | 85.4 µM | > 100 µM | > 100 µM | > 100 µM | 55.1 µM | > 100 µM | > 100 µM | 40.5 µM | > 100 µM | > 100 µM | > 92.4 µM | > 100 µM | 50.1 µM | > 100 µM | > 65.4 µM | 43.8 µM
CC(=O)N1CC(F)(F)c2c(Sc3ncc(N4CCC5(CC4)COC[C@H]5N)nc3N)cccc21 | 9.03 µM | 51.4 µM | 18.7 µM | 68.5 µM | 17.8 µM | 36.7 µM | 3.69 µM | 75.1 µM | 14.2 µM | 52.9 µM | > 100 µM | 16 µM | 30.1 µM | 35.8 µM | 11.1 µM | 52.5 µM | 22.8 µM | 62 µM | 20.9 µM | 8.16 µM
